In PMC10816276 (International Journal of Molecular Sciences, 2024):
“Also recorded” adds a separate entry of the source.

Columns and labels:
[1] = tested on: human immortalized keratinocyte (HaCaT) non-tumor cells; assay: CCK-8 cell proliferation and cytotoxicity assay, HaCaT; type: cell-based
Experimental: I. Cell lines and cell culture. Human melanoma A375 tumor cells and human immortalized keratinocyte (HaCaT) non-tumor cells were obtained from Nanjing Pusheng Biomedical Technology Co., Ltd. (Nanjing, China). The cells (A375/HaCaT) were cultured in Dulbecco’s modified Eagle’s medium (DMEM, Gibco, New York, NY, USA) supplemented with 10% (v/v) fetal bovine serum (FBS, Gibco, New York, NY, USA), and incubated at 37 °C with 5% CO2 in a humidified incubator.
II. Cell viability assay. Cell proliferation and cytotoxicity assays were conducted using the Cell counting kit-8 (CCK-8) on A375 and HaCaT cells. Briefly, the cells were initially seeded in 96-well plates at a density of 4 × 10^4 cells per well and incubated for 24 h at 37 °C with 5% CO2 in a humidified incubator. Each treatment was performed in six duplicate wells. The tested compounds were added at various concentrations, and the cells were then incubated for 72 h. Following the incubation period, CCK-8 solution (Dojindo Laboratories, Kumamoto, Japan) was added to each well, and the plates were further incubated for 2 h. The absorbance of each well at 450 nm was measured using an absorbance microplate reader (BioTek ELx800, Winooski, VT, USA). The assay included negative controls in which cells were treated with ultrapure water and positive controls in which cells were treated with 10 µg·mL^−1 taxol. The percentage of cell growth inhibition was calculated using the following Equation (3). (3) Cell growth inhibition rate [%]=B1−B2/B1−B3×100 where B1 represents the absorbance of a mixture containing cells, medium, and CCK-8 solution, B2 represents the absorbance of a mixture containing cells, medium, CCK-8 solution, and the test compound; and B3 represents a mixture containing medium and CCK-8 solution.

zebrafish = tested on: zebrafish; set-up: method as in PMID 24498931; conditions: live zebrafish model; cited from earlier work
[2] = molecular target: T1, Mushroom tyrosinase (mTyr) (Agaricus bisporus, UniProt C7FF04); assay: Fluorescence quenching of mTyr; type: binding
T1 construct: purchased Sigma-Aldrich
Source text: Fluorescence quenching can be classified into static quenching and dynamic quenching. Static quenching occurs when quenching agents bind to fluorescent substances, forming complexes that result in quenching. Dynamic quenching, on the other hand, primarily arises from thermal motion and molecular collisions. The plot of F0/F against the concentration of 6′-O-caffeoylarbutin yielded a straight line with a good linear relationship (R^2 = 0.9802). […] Typically, the threshold value for the maximum collisional quenching rate constant between small molecular quenchers and large biomolecules is 2.0 × 10^10 L·(mol·s)^−1. If the calculated quenching rate constant is below this threshold, it indicates a dynamic quenching mechanism. Conversely, if the quenching rate constant exceeds this threshold, the quenching process may involve static quenching.
In the static quenching process, the relationship between fluorescence intensity and quencher concentration can be described by Equation (1). lg[(F0 − F)/F] = lgKa + nlg[Q](1) where F0 and F represent relative fluorescence intensities of the solution without and with the quencher, respectively. Ka represents the apparent binding constant between the enzyme and the quencher, n represents the number of binding sites on each biomacromolecule for the quencher, and [Q] denotes the concentration of the quencher. In this study, a double-logarithmic linear regression analysis of lg[(F0 − F)/F] against lg[Q] was conducted to evaluate the interaction between 6′-O-caffeoylarbutin and mTyr. Figure S5C illustrates the resulting regression line, which provided a slope and intercept for the calculation of Ka and n. The obtained values were determined as (10.79 ± 0.82) × 10^4 L∙mol^−1 and 0.79 ± 0.06, respectively. These findings indicate the formation of a stable complex between 6′-O-caffeoylarbutin and mTyr, involving a single binding site.
The fluorescence quenching role of 6′-O-caffeoylarbutin on mTyr was investigated using a RF-6000 fluorescence spectrophotometer (Shimadzu, Kyoto, Japan) with a xenon flash lamp as a light source, according to the literature with minor alterations. The excitation wavelength was 280 nm, with a scanning wavelength ranging from 290 to 500 nm at 37 °C. The excitation and emission bandwidths were 2.5 nm and 5.0 nm, respectively. A 3 mL mixture containing 2.0 mL of 31.25 U·mL^−1 mTyr solution, 0.5 mL of 6′-O-caffeoylarbutin solution (with 3% dimethyl sulfoxide) at concentrations from 0 to 100 μM, and 0.5 mL of PBS was used to collect the fluorescence intensity curves. The PBS served as the corresponding blank to correct the fluorescence intensities. The fluorescence quenching mechanism between mTyr and 6′-O-caffeoylarbutin was described using the Stern-Volmer Equation (2). (2) F0/F=1+KSVQ=1+Kqτ0[Q] where KSV is the Stern-Volmer quenching constant, [Q] represents the concentration of 6′-O-caffeoylarbutin, Kq is bimolecular quenching rate constant, and τ0 denotes the average lifetime of the fluorescence molecules in the absence of 6′-O-caffeoylarbutin (value is 10^−8 s).

[3] = molecular target: T1, Mushroom tyrosinase (mTyr); assay: HPLC analysis of oxidation of L-DOPA catalyzed by mTyr; type: biochemical; conditions: 2 μg·mL^−1 inhibitor, 0.5 mM L-DOPA, 31.25 U·mL^−1 mTyr, 30 °C, 0-30 min
Experimental: The inhibitory effect of 6′-O-caffeoylarbutin on the oxidation of L-DOPA catalyzed by mTyr was studied using Agilent 1200 series HPLC analysis (Palo Alto, CA, USA), with minor modifications to the previous procedure. The experiment was conducted with 0.5 mM L-DOPA as a diphenolase substrate for 31.25 U·mL^−1 mTyr in the absence of an inhibitor. Subsequently, 2 μg·mL^−1 of 6′-O-caffeoylarbutin was added, and the reaction mixture was incubated for 0, 15, and 30 min at 30 °C. Samples (10 μL) were injected after filtration onto the HPLC system equipped with a Capcell pak C18 column (250 × 4.6 mm, 5 μm, Shiseido, Tokyo, Japan) operating at a flow rate of 1.0 mL·min^−1. The column temperature maintained at 30 °C and the detection wavelength was set at 280 nm. The mobile phase was consisted of water (A) and methanol (B), and a gradient elution employed with the following linear gradient for solvent B: 5% (0 min), 20% (10 min), 50% (20 min), 80% (25 min), and 100% (35 min).

T1 sequence (C7FF04 1-392): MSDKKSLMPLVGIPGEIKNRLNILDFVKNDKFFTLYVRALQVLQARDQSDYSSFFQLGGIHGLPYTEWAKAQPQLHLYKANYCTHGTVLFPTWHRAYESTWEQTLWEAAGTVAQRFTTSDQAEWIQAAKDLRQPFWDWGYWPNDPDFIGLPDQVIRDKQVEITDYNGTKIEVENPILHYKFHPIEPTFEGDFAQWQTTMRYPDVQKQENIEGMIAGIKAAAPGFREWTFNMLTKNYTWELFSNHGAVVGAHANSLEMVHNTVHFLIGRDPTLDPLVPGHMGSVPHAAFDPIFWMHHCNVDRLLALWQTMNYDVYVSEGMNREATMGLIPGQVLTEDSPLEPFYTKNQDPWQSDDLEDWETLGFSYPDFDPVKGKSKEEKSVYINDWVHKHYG

## O=C(C=Cc1ccc(O)c(O)c1)OCC1OC(Oc2ccc(O)cc2)C(O)C(O)C1O (stereo not drawn) [6′-O-caffeoylarbutin]
[1]; 3.125–100 μg∙mL^−1, 72 h
  inhibition rate: below 3%
[1]; Homo sapiens, 200 μg∙mL^−1, 72 h, read-out: inhibition rate
  inhibition at 200 µg/mL: 3.6%
[1]; Homo sapiens, 400 μg∙mL^−1, 72 h, read-out: inhibition rate
  inhibition at 400 µg/mL: 14.5%
[1]; Homo sapiens, 72 h, CCK-8
  IC50: > 400 µg/mL
zebrafish
  inhibitory effect on melanin production relative to beta-arbutin: approximately two-fold higher; also recorded: approximately twice as potent as that of beta-arbutin
  toxicity level relative to beta-arbutin: around half that of beta-arbutin
[2]; 25 μM
  reduction of the peak of the fluorescence emission spectrum of mTyr: 37.18%
[2]; 100 μM
  decrease in the fluorescence emission spectrum of mTyr: 12.57%
[2]; Stern-Volmer, 37 °C
  quenching rate constant Kq: 4.11e+12 L·mol/s
[2]; double-logarithmic regression
  apparent binding constant Ka: 108000 L/mol
  number of binding sites n: 0.79 ± 0.06
[3]
  oxidation products of L-DOPA (HPLC): significantly decrease
